22 compounds from US9044463B2, “FSH receptor antagonists” (Merck Sharp & Dohme B.V., priority 2011, dated 2015) can be followed below.

Structures are written as SMILES. pIC50: −log10 of the molar value.

The experiment addresses T1, human FSH receptor (Homo sapiens, UniProt P23945).
T1 construct: expressed in transfected cells; host or cells: CHO (Chinese Hamster Ovary) cells, stably transfected; cotransfected with a CRE-luciferase reporter
T1 sequence (P23945 18-695): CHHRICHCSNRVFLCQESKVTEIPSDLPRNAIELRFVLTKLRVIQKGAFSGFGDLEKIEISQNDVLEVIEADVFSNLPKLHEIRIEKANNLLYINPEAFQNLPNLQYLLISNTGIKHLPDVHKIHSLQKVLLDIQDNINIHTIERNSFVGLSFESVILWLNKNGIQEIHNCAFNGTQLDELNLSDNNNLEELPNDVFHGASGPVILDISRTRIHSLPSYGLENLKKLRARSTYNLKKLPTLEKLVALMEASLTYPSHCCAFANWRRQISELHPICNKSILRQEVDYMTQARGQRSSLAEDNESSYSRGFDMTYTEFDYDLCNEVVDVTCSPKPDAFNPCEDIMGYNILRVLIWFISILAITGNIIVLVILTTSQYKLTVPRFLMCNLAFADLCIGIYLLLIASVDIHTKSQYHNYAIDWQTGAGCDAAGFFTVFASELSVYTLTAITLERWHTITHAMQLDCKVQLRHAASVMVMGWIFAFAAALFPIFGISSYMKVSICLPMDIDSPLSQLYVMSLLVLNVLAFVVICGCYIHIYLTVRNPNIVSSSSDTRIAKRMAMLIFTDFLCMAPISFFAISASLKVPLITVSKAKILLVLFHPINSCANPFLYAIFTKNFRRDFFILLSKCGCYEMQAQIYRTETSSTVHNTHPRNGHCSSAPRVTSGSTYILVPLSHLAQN
Put plainly: Antagonistic activity at the human FSH receptor expressed in CHO cells (CRE-luciferase reporter). It is filed as cell-based. As to conditions: CHO cells stably transfected with human FSH receptor and CRE-luciferase; with 49 μM recFSH; 4 hours incubation; read-out: IC50 (inhibition of recFSH-induced luciferase stimulation). The method, then: Antagonistic Activity of Compounds at the Human FSH Receptor Expressed in CHO Cells
Antagonistic activity of the compounds at the human FSH receptor was determined in Chinese Hamster Ovary (CHO) cells stably transfected with the human FSH receptor and cotransfected to with a cAMP responsive element (CRE)/promoter directing the expression of a firefly luciferase reporter gene. Binding of the compounds to the Gs protein-coupled FSH receptor will result in an increase of cAMP, which in turn will induce an increased transactivation of the luciferase reporter. The cells (7,500 cells/well of a 384 well plate) were incubated in Dulbecco′ minimal essential F12 modified medium (Invitrogen), supplemented with 1 μg/ml bovine insulin, 5 μg/ml human apo-transferrin, 100 U/ml penicillin G and 100 μg/ml streptomycin with the test compounds (concentration between 0.316 nM and 10.0 μM) in duplicate together with […] recFSH (which, at this concentration in the absence of test compound, induces 80% of the maximal luciferase stimulation) in a humidified atmosphere (95%) at 5-7% CO2 and 37° C. The final concentration of DMSO was 1%. After 4 hours of incubation, plates were allowed to adjust to room temperature for 1 hour. Then, SteadyLite (PerkinElmer) solution was added to the wells and cells were allowed to lyse for at least 1 hour at room temperature. Subsequently, luciferase activity was measured in a luminescence counter. The signal is expressed as counts per second (cps). The IC50 (concentration of test compound causing half-maximal (50%) inhibition of the maximally attainable inhibition of the luciferase stimulation by the compound) and efficacy of the compounds were determined using the software program MathIQ (version 2.3, ID Business Solutions Limited).
A general note: A reporter such as luciferase makes a cellular process visible.
Regarding `COc1cc2c(c(OC)c1OC)CCc1cc(-c3ccccc3)c(C(=O)N[C@@H](CO)Cc3c[nH]c4ccccc34)cc1-2` [Example 1, (R)—N-(1-hydroxy-3-(1H-indol-3-yl)propan-2-yl)-6,7,8-trimethoxy-2-phenyl-9,10-dihydrophenanthrene-3-carboxamide], the negative-log IC50 (pIC50) (in general, the IC50 on a negative log10 scale, so that one unit is a factor of ten) is above 7.00.

Consider `COc1cc2c(c(OC)c1OC)CCc1cc(-c3ccccc3F)c(C(=O)N[C@@H](CO)Cc3c[nH]c4ccccc34)cc1-2` [Example 2, 2-(2-fluorophenyl)-N—((R)-1-hydroxy-3-(1H-indol-3-yl)propan-2-yl)-6,7,8-trimethoxy-9,10-dihydrophenanthrene-3-carboxamide], for which the pIC50 is above 7.00.

For `COc1cc2c(c(OC)c1OC)CCc1cc(-c3cccc(F)c3F)c(C(=O)N[C@@H](CO)Cc3c[nH]c4ccccc34)cc1-2` [Example 3, 2-(2,3-difluorophenyl)-N—((R)-1-hydroxy-3-(1H-indol-3-yl)propan-2-yl)-6,7,8-trimethoxy-9,10-dihydrophenanthrene-3-carboxamide], the pIC50 is above 7.00.

As to `COc1cc2c(c(OC)c1OC)CCc1cc(-c3cccs3)c(C(=O)N[C@@H](CO)Cc3c[nH]c4ccccc34)cc1-2` [Example 4, (R)—N-(1-hydroxy-3-(1H-indol-3-yl)propan-2-yl)-6,7,8-trimethoxy-2-(thiophen-2-v)-9,10-dihydrophenanthrene-3-carboxamide], the pIC50 was above 7.00.

Regarding `COc1cc2c(c(OC)c1OC)CCc1cc(-c3sccc3C)c(C(=O)N[C@@H](CO)Cc3c[nH]c4ccccc34)cc1-2` [Example 5, N—((R)-1-hydroxy-3-(1H-indol-3-yl)propan-2-yl)-6,7,8-trimethoxy-2-(3-methylthiophen-2-yl)-9,10-dihydrophenanthrene-3-carboxamide], the pIC50 was above 7.00.

For the compound `COc1cc2c(c(OC)c1OC)CCc1cc(-c3cccnc3OC)c(C(=O)N[C@@H](CO)Cc3c[nH]c4ccccc34)cc1-2` [Example 6, N—((R)-1-hydroxy-3-(1H-indol-3-yl)propan-2-yl)-6,7,8-trimethoxy-2-(2-methoxypyrdin-3-v)-9,10-dihydrophenanthrene-3-carboxamide], the pIC50 was above 7.00.

Regarding `COc1cc2c(c(OC)c1OC)CCc1cc(OC(C)C)c(C(=O)N[C@@H](CO)Cc3c[nH]c4ccccc34)cc1-2` [Example 7, (R)—N-(1-hydroxy-3-(1H-indol-3-yl)propan-2-yl)-2-isopropoxy-6,7,8-trimethoxy-9,10-dihydrophenanthrene-3-carboxamide], the pIC50 is above 7.00.

With `COc1cc2c(cc1OC)-c1cc(C(=O)N[C@@H](CO)Cc3c[nH]c4ccccc34)c(OCC3CC3)cc1CC2` [Example 8, (R)-2-(cyclopropylmethoxy)-N-(1-hydroxy-3-(1H-indol-3-yl)propan-2-yl)-6,7-dimethoxy-9,10-dihydrophenanthrene-3-carboxamide], the pIC50 is above 7.00.

Consider `COc1cc2c(cc1OC)-c1cc(C(=O)N[C@@H](CO)Cc3c[nH]c4ccccc34)c(OC3CCCC3)cc1CC2` [Example 9, (R)-2-(cyclopentyloxy)-N-(1-hydroxy-3-(1H-indol-3-yl)propan-2-yl)-6,7-dimethoxy-9,10-dihydrophenanthrene-3-carboxamide], for which the pIC50 is above 7.00.

For the compound `CCCC(C)Oc1cc2c(cc1C(=O)N[C@@H](CO)Cc1c[nH]c3ccccc13)-c1cc(OC)c(OC)cc1CC2` (stereo partly drawn) [Example 10, N—((R)-1-hydroxy-3-(1H-indol-3-yl)propan-2-yl)-6,7-dimethoxy-2-(pentan-2-yloxy)-9,10-dihydrophenanthrene-3-carboxamide], the pIC50 is above 7.00.

On to `COc1cc2c(cc1OC)-c1cc(C(=O)N[C@@H](CO)Cc3c[nH]c4ccccc34)c(OC(F)F)cc1CC2` [Example 11, (R)-2-(difluoromethoxy)-N-(1-hydroxy-3-(1H-indol-3-yl)propan-2-yl)-6,7-dimethoxy-9,10-dihydrophenanthrene-3-carboxamide], for which the pIC50 was above 7.00.

With `COc1cc2c(cc1OC)-c1cc(C(=O)N[C@@H](CO)Cc3c[nH]c4ccccc34)c(OC(C)C#N)cc1CC2` (stereo partly drawn) [Example 12, 2-(1-cyanoethoxy)-N—((R)-1-hydroxy-3-(1H-indol-3-yl)propan-2-yl)-6,7-dimethoxy-9,10-dihydrophenanthrene-3-carboxamide], the pIC50 was 6.00 to 7.00.

In the case of `C=CCOc1cc2c(cc1C(=O)N[C@@H](CO)Cc1c[nH]c3ccccc13)-c1cc(OC)c(OC)cc1CC2` [Example 13, (R)-2-(allyloxy)-N-(1-hydroxy-3-(1H-indol-3-yl)propan-2-yl)-6,7-dimethoxy-9,10-dihydrophenanthrene-3-carboxamide], the pIC50 is 6.00 to 7.00.

With `COc1cc2c(cc1OC)-c1cc(C(=O)N[C@@H](CO)Cc3c[nH]c4ccccc34)c(OC(F)C(N)=O)cc1CC2` (stereo partly drawn) [Example 14, 2-(2-amino-1-fluoro-2-oxoethoxy)-N—((R)-1-hydroxy-3-(1H-indol-3-yl)propan-2-yl)-6,7-dimethoxy-9,10-dihydrophenanthrene-3-carboxamide], the pIC50 was 6.00 to 7.00.

In the case of `COCCOc1cc2c(cc1C(=O)N[C@@H](CO)Cc1c[nH]c3ccccc13)-c1cc(OC)c(OC)cc1CC2` [Example 15, (R)—N-(1-hydroxy-3-(1H-indol-3-yl)propan-2-yl)-6,7-dimethoxy-2-(2-methoxyethoxy)-9,10-dihydrophenanthrene-3-carboxamide], the pIC50 is 6.00 to 7.00.

`COc1cc2c(cc1OC)-c1cc(C(=O)N[C@@H](CO)Cc3c[nH]c4ccccc34)c(-c3ccccc3F)cc1CC2` [Example 18, 2-(2-fluorophenyl)-N—((R)-1-hydroxy-3-(1H-indol-3-yl)propan-2-yl)-6,7-dimethoxy-9,10-dihydrophenanthrene-3-carboxamide]: the negative logarithm of the IC50 (pIC50) is above 7.00.

Regarding `COc1cc2c(cc1OC)-c1cc(C(=O)N[C@@H](CO)Cc3c[nH]c4ccccc34)c(-c3c(F)cc(O)cc3F)cc1CC2` [Example 19, (R)-2-(2,6-difluoro-4-hydroxyphenyl)-N-(1-hydroxy-3-(1H-indol-3-yl)propan-2-yl)-6,7-dimethoxy-9,10-dihydrophenanthrene-3-carboxamide], the pIC50 was above 7.00.

Turning to `COc1cc2c(cc1OC)-c1cc(C(=O)N[C@@H](CO)Cc3c[nH]c4ccccc34)c(-c3ccc(N)cc3F)cc1CC2` [Example 20, 2-(4-amino-2-fluorophenyl)-N—((R)-1-hydroxy-3-(1H-indol-3-yl)propan-2-yl)-6,7-dimethoxy-9,10-dihydrophenanthrene-3-carboxamide], the pIC50 is above 7.00.

As to `COc1cc2c(cc1OC)-c1cc(C(=O)N[C@@H](CO)Cc3c[nH]c4ccccc34)c(-c3ccncc3F)cc1CC2` [Example 21, 2-(3-fluoropyridin-4-yl)-N—((R)-1-hydroxy-3-(1H-indol-3-yl)propan-2-yl)-6,7-dimethoxy-9,10-dihydrophenanthrene-3-carboxamide], the pIC50 was above 7.00.

Consider `COc1cc2c(cc1OC)-c1cc(C(=O)N[C@@H](CO)Cc3c[nH]c4ccccc34)c(C(C)=C(C)C)cc1CC2` [Example 22, (R)—N-(1-hydroxy-3-(1H-indol-3-yl)propan-2-yl)-6,7-dimethoxy-2-(3-methylbut-2-en-2-yl)-9,10-dihydrophenanthrene-3-carboxamide], for which the negative logarithm of the IC50 (pIC50) is above 7.00.

On to `COc1cc2c(cc1OC)-c1cc(C(=O)N[C@@H](CO)Cc3c[nH]c4ccccc34)c(-c3ccc(Cl)s3)cc1CC2` [Example 23, (R)-2-(5-chlorothiophen-2-yl)-N-(1-hydroxy-3-(1H-indol-3-yl)propan-2-yl)-6,7-dimethoxy-9,10-dihydrophenanthrene-3-carboxamide], for which the pIC50 was above 7.00.

Take `COc1cc2c(cc1OC)-c1cc(C(=O)N[C@@H](CO)Cc3c[nH]c4ccccc34)c(-c3ccco3)cc1CC2` [Example 24, (R)-2-(furan-2-yl)-N-(1-hydroxy-3-(1H-indol-3-yl)propan-2-yl)-6,7-dimethoxy-9,10-dihydrophenanthrene-3-carboxamide]: the pIC50 was above 7.00.
